Measurements taken from PubChem BioAssay (NCI).
“And” between values parts separate entries of the source, which are not always exact repeats. Equal entries are not always repeated.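 In this assay, cells in 96-well plates receive the compound at five concentrations for 48 hours. Endpoints are linearly interpolated between the surrounding concentrations. At the GI50, growth is halved. TGI marks complete inhibition of growth.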

Tests used:
Test in all cases: NCI anticancer screen, dose series, 48 h
[1] = test system: SK-MEL-2 melanoma
[2] = test system: HS 578T breast
[3] = test system: SN12C renal
[4] = test system: HL-60(TB) leukemia
[5] = test system: TK-10 renal
[6] = test system: OVCAR-8 ovarian
[7] = test system: KM12 colon
[8] = test system: K-562 leukemia
[9] = test system: HT29 colon
[10] = test system: NCI/ADR-RES ovarian
[11] = test system: M14 melanoma
[12] = test system: MCF7 breast
[13] = test system: UACC-257 melanoma
[14] = test system: HCT-116 colon
[15] = test system: SK-MEL-5 melanoma
[16] = test system: U251 CNS
[17] = test system: MDA-MB-231 breast
[18] = test system: CAKI-1 renal
[19] = test system: NCI-H460 lung
[20] = test system: UACC-62 melanoma
[21] = test system: SR leukemia
[22] = test system: RPMI-8226 leukemia
[23] = test system: CCRF-CEM leukemia
[24] = test system: SF-268 CNS
[25] = test system: EKVX NSCLC
[26] = test system: IGROV1 ovarian
[27] = test system: T-47D breast
[28] = test system: HOP-62 NSCLC
[29] = test system: SF-539 CNS
[30] = test system: HCT-15 colon
[31] = test system: NCI-H23 lung
[32] = test system: DU-145 prostate
[33] = test system: OVCAR-3 ovarian
[34] = test system: SW-620 colon
[35] = test system: MDA-MB-435
[36] = test system: OVCAR-4 ovarian
[37] = test system: HOP-92 NSCLC
[38] = test system: SNB-19 CNS
[39] = test system: SF-295 CNS
[40] = test system: UO-31 renal
[41] = test system: 786-0 renal
[42] = test system: SK-MEL-28 melanoma
[43] = test system: OVCAR-5 ovarian
[44] = test system: SK-OV-3 ovarian
[45] = test system: MALME-3M melanoma
[46] = test system: HCC-2998 colon
[47] = test system: COLO 205 colon
[48] = test system: A498 renal
[49] = test system: NCI-H226 lung
[50] = test system: LOX IMVI melanoma
[51] = test system: MOLT-4 leukemia
[52] = test system: PC-3 prostate
[53] = test system: NCI-H522 lung
[54] = test system: BT-549 breast
[55] = test system: SNB-75 CNS
[56] = test system: A549 NSCLC
[57] = test system: ACHN renal
[58] = test system: RXF 393 renal

SMILES: CC(=O)Oc1ccc(C2(c3ccc(OC(C)=O)cc3)C(=O)Nc3ccccc32)cc1
- GI50 [1]: 30.4 µM and 52.8 µM
- TGI [1]: 96.9 µM and > 100 µM
- GI50 [2]: 0.0651 µM and 0.153 µM
- TGI [2]: 0.484 µM and 0.7 µM
- GI50 [3]: 0.202 µM and 0.283 µM
- TGI [3]: > 68.3 µM
- GI50 [4]: 15.1 µM and 30.9 µM
- TGI [4]: > 71.9 µM
- GI50 [5]: 3.14 µM and 17.6 µM
- TGI [5]: > 100 µM
- GI50 [6]: 0.292 µM and 0.408 µM
- TGI [6]: > 100 µM
- GI50 [7]: 12.7 µM and 12.6 µM
- TGI [7]: > 62.7 µM and 51.7 µM
- GI50 [8]: 17.3 µM and 42.2 µM
- TGI [8]: > 87.3 µM
- GI50 [9]: 30.4 µM and 45.3 µM
- TGI [9]: > 100 µM
- GI50 [10]: 1.16 µM and 1.8 µM
- TGI [10]: > 100 µM
- GI50 [11]: 34.4 µM and 38.2 µM
- TGI [11]: > 100 µM
- GI50 [12]: 0.229 µM and 0.278 µM
- TGI [12]: > 49.3 µM
- GI50 [13]: 24.1 µM and 28.2 µM
- TGI [13]: 79.4 µM and > 100 µM
- GI50 [14]: 34.1 µM and 25.8 µM
- TGI [14]: > 100 µM
- GI50 [15]: 24.6 µM and 36.1 µM
- TGI [15]: > 100 µM
- GI50 [16]: 33.6 µM and 41.4 µM
- TGI [16]: > 100 µM
- GI50 [17]: 25.6 µM and 37.8 µM
- TGI [17]: > 100 µM
- GI50 [18]: 31.4 µM and 31.8 µM
- TGI [18]: > 100 µM
- GI50 [19]: 36.6 µM and 46.3 µM
- TGI [19]: > 100 µM
- GI50 [20]: 34.8 µM and 43.5 µM
- TGI [20]: > 100 µM
- GI50 [21]: 25.1 µM and 24.2 µM
- TGI [21]: > 100 µM
- GI50 [22]: 20.5 µM and 17.6 µM
- TGI [22]: > 93.2 µM
- GI50 [23]: 25.7 µM and 28.6 µM
- TGI [23]: > 100 µM and 99.3 µM
- GI50 [24]: 38.5 µM and 32.8 µM
- TGI [24]: > 100 µM
- GI50 [25]: 8.49 µM and 22.4 µM
- TGI [25]: > 100 µM
- GI50 [26]: 11.2 µM and 16.8 µM
- TGI [26]: 81.3 µM and > 100 µM
- GI50 [27]: 0.031 µM and 0.0327 µM
- TGI [27]: 0.112 µM and 0.129 µM
- GI50 [28]: 34.7 µM and 35.1 µM
- TGI [28]: > 100 µM
- GI50 [29]: 26.3 µM and 50.2 µM
- TGI [29]: > 100 µM
- GI50 [30]: 20.5 µM and 25.8 µM
- TGI [30]: > 100 µM
- GI50 [31]: 9.3 µM and 19.3 µM
- TGI [31]: > 100 µM
- GI50 [32]: 24.4 µM and 28.7 µM
- TGI [32]: > 70.4 µM and 95.3 µM
- GI50 [33]: 0.081 µM and 0.131 µM
- TGI [33]: > 35.8 µM and 26 µM
- GI50 [34]: 36.7 µM and 31.5 µM
- TGI [34]: > 100 µM
- GI50 [35]: 30.6 µM and 29.8 µM
- TGI [35]: > 100 µM
- GI50 [36]: 0.0347 µM and 0.0389 µM
- TGI [36]: 1.42 µM
- GI50 [37]: 11.8 µM and 16.2 µM
- TGI [37]: > 79.6 µM
- GI50 [38]: 42.9 µM and > 61.1 µM
- TGI [38]: > 100 µM
- GI50 [39]: 23.5 µM and 38.3 µM
- TGI [39]: > 100 µM
- GI50 [40]: 24 µM and 27.5 µM
- TGI [40]: > 100 µM
- GI50 [41]: 42.6 µM and 46.6 µM
- TGI [41]: > 100 µM
- GI50 [42]: 35.1 µM and 34.2 µM
- TGI [42]: > 100 µM
- GI50 [43]: > 70.8 µM
- TGI [43]: > 100 µM
- GI50 [44]: 31.8 µM and 58.9 µM
- TGI [44]: > 100 µM
- GI50 [45]: 64.5 µM and > 100 µM
- TGI [45]: > 100 µM
- GI50 [46]: 29.7 µM and 23.1 µM
- TGI [46]: > 100 µM
- GI50 [47]: 0.0741 µM and 0.155 µM
- TGI [47]: 11.9 µM and 29.8 µM
- GI50 [48]: 24.6 µM and 26.8 µM
- TGI [48]: > 76.1 µM and 89.8 µM
- GI50 [49]: > 100 µM
- TGI [49]: > 100 µM
- GI50 [50]: 16.8 µM and 13.8 µM
- TGI [50]: > 100 µM
- GI50 [51]: 16.3 µM and 28.3 µM
- TGI [51]: > 100 µM
- GI50 [52]: 5.19 µM and 14.3 µM
- TGI [52]: > 100 µM
- GI50 [53]: 3.12 µM and 4.56 µM
- TGI [53]: > 100 µM
- GI50 [54]: 0.064 µM and 0.158 µM
- TGI [54]: 0.524 µM and 0.733 µM
- GI50 [55]: 17.2 µM and 23.8 µM
- TGI [55]: 59 µM and > 79.9 µM
- GI50 [56]: 33.8 µM and 42.9 µM
- TGI [56]: > 100 µM
- GI50 [57]: 18.9 µM and 30.6 µM
- TGI [57]: > 100 µM

SMILES: Cc1n(Cc2ccc3ccccc3c2)c(Cl)c(Cl)[n+]1Cc1ccc2ccccc2c1
- GI50 [1]: 2.07 µM
- TGI [1]: 4.13 µM
- GI50 [2]: 1.54 µM
- TGI [2]: 3.79 µM
- GI50 [3]: 1.62 µM
- TGI [3]: 3.03 µM
- GI50 [4]: 1.11 µM
- TGI [4]: 3.55 µM
- GI50 [5]: 1.79 µM
- TGI [5]: 3.53 µM
- GI50 [7]: 1.71 µM
- TGI [7]: 3.24 µM
- GI50 [8]: 1.9 µM
- TGI [8]: 7.3 µM
- GI50 [9]: 1.76 µM
- TGI [9]: 4.12 µM
- GI50 [10]: 12 µM
- TGI [10]: 29.6 µM
- GI50 [11]: 1.79 µM
- TGI [11]: 3.99 µM
- GI50 [12]: 1.61 µM
- TGI [12]: 3.37 µM
- GI50 [13]: 1.81 µM
- TGI [13]: 4.21 µM
- GI50 [14]: 1.62 µM
- TGI [14]: 3.28 µM
- GI50 [15]: 1.69 µM
- TGI [15]: 3.08 µM
- GI50 [16]: 1.79 µM
- TGI [16]: 3.6 µM
- GI50 [17]: 1.59 µM
- TGI [17]: 3.09 µM
- GI50 [18]: 1.85 µM
- TGI [18]: 4.67 µM
- GI50 [19]: 1.69 µM
- TGI [19]: 3.2 µM
- GI50 [20]: 1.38 µM
- TGI [20]: 2.74 µM
- GI50 [21]: 1.87 µM
- TGI [21]: 4.98 µM
- GI50 [22]: 1.05 µM
- TGI [22]: 3.12 µM
- GI50 [23]: 1.96 µM
- TGI [23]: 6.05 µM
- GI50 [24]: 1.67 µM
- TGI [24]: 3.29 µM
- GI50 [25]: 2.4 µM
- TGI [25]: 8.01 µM
- GI50 [26]: 1.39 µM
- TGI [26]: 2.81 µM
- GI50 [27]: 2.05 µM
- TGI [27]: 6.44 µM
- GI50 [58]: 1.66 µM
- TGI [58]: 3.16 µM
- GI50 [28]: 1.79 µM
- TGI [28]: 3.81 µM
- GI50 [29]: 1.62 µM
- TGI [29]: 3.08 µM
- GI50 [30]: 2.29 µM
- TGI [30]: 6.52 µM
- GI50 [31]: 1.66 µM
- TGI [31]: 3.86 µM
- GI50 [32]: 2.22 µM
- TGI [32]: 5.26 µM
- GI50 [33]: 1.44 µM
- TGI [33]: 2.87 µM
- GI50 [34]: 1.48 µM
- TGI [34]: 3.06 µM
- GI50 [35]: 1.68 µM
- TGI [35]: 3.19 µM
- GI50 [36]: 1.39 µM
- TGI [36]: 2.76 µM
- GI50 [37]: 1.17 µM
- TGI [37]: 2.94 µM
- GI50 [38]: 1.57 µM
- TGI [38]: 2.96 µM
- GI50 [39]: 2.62 µM
- TGI [39]: 8.09 µM
- GI50 [40]: 1.71 µM
- TGI [40]: 8.24 µM
- GI50 [41]: 1.71 µM
- TGI [41]: 3.14 µM
- GI50 [42]: 1.68 µM
- TGI [42]: 3.18 µM
- GI50 [43]: 1.65 µM
- TGI [43]: 3.89 µM
- GI50 [44]: 2.52 µM
- TGI [44]: 9.62 µM
- GI50 [45]: 1.54 µM
- TGI [45]: 3.46 µM
- GI50 [46]: 1.66 µM
- TGI [46]: 3.14 µM
- GI50 [47]: 1.65 µM
- TGI [47]: 3.8 µM
- GI50 [48]: 1.56 µM
- TGI [48]: 4.57 µM
- GI50 [49]: 2.48 µM
- TGI [49]: 6.97 µM
- GI50 [50]: 1.6 µM
- TGI [50]: 2.95 µM
- GI50 [51]: 2.31 µM
- TGI [51]: 5.58 µM
- GI50 [52]: 1.83 µM
- TGI [52]: 4.13 µM
- GI50 [53]: 1.52 µM
- TGI [53]: 3.9 µM
- GI50 [54]: 1.65 µM
- TGI [54]: 3.17 µM
- GI50 [55]: 1.16 µM
- TGI [55]: 2.66 µM
- GI50 [56]: 5.07 µM
- TGI [56]: 22 µM
- GI50 [57]: 2.59 µM
- TGI [57]: 8.07 µM
